The text below walks through data of patent US10000566B2, “Anti-CD33 antibodies and methods for treatment of acute myeloid leukemia using the same” (IMMUNOGEN INC., priority 2002, dated 2018).

The target in data set [1] is T1, CD33 (Homo sapiens, UniProt P20138).
T1 construct: Gemtuzumab ozogamicin was evaluated in phase I and II clinical studies; host or cells: patients (AML)
To be noted: 9 mg/m^2 i.v. over 4 hours, repeated after 14 days; cited from earlier work.

In data set [2] the test system is leukemia cells (HL-60 cell cultures, HL-60 tumor xenografts in mice, marrow samples from AML patients). The note with it: cited from earlier work.
In data set [3] the test system is human HL-60 tumor cell xenografts. Put plainly: Subcutaneous HL-60 tumor xenograft model in SCID mice. It counts as in vivo. The protocol:
(§1) Subcutaneous tumor model—HL-60 human promyelocytic leukemia cells (5×10^6 cells in 0.1 mL) were subcutaneously inoculated into the right flank of female SCID mice. Mice were treated by intravenous injection into a lateral tail vein starting when tumors reached 100 mm^3 in size (400 mm^3 in large tumor model). Tumor size and mouse body weight were measured twice per week. Survival model—HL-60 cells (5×10^6 cells in 0.1 mL) were intravenously injected into the lateral tail vein of female SCID mice. Eleven days after tumor cell injection treatment was started. Mice were checked every day for moribund, tumor mass, or death. Body weight was measured twice per week.
The efficacy of My9-6-DM1 in vivo was determined using SCID mice bearing human HL-60 tumor cell xenografts. HL-60 cells were injected subcutaneously and tumors were allowed to grow to an average size of 100 mm^3. Dosage is expressed as mg antibody in the conjugate, which corresponds to a DM1 dose of approximately 15 μg DM1 per mg of antibody. Tumor volume was measured as an indication of treatment efficacy and mouse body weight was monitored to indicate toxicity due to treatment.

For data set [4] the following is noted: in vivo; cited from earlier work.
For data set [5], the target named is T1, CD33. To be noted: Phase I; cited from earlier work.
For data set [6] the following is noted: nude mice; cited from earlier work.
Data set [7] deals with HL-60 cells injected intravenously. Put plainly: HL-60 cell mouse survival model. It counts as in vivo, SCID mice. The note with it: treatment starting 11 days after cell injection. Here is the method:
FIGS. 24A & B show anti-tumor efficacy of My9-6-DM1 compared with Gentuzumab ozogamicin and standard chemotherapy in an HL-60 survival model. HL-60 cells were intravenously injected into SCID mice. Indicated treatments were started 11 days following injection of cells. Treatments were i.v. daily ×5 except for Gentuzumab ozogamicin (Q4D×3).
as §1
While the efficacy of My9-6-DM1 in the tumor xenograft model is striking, it is also of interest to look at the activity of the conjugate in a mouse survival model where HL-60 cells are injected directly into a mouse tail vein. In this model, control mice die between 30 and 50 days after cell injection. […] However, even in this model, standard chemotherapy provided no significant survival enhancement (FIG. 24B).

Data set [8] deals with large HL-60 tumors. Put plainly: Large HL-60 tumor xenograft model in SCID mice. The class given is in vivo. Here is the method: as §1
Tumors were allowed to grow to a tumor volume of >400 mm^3 prior to the initiation of treatment. In addition, a comparison of the activity of My9-6-DM1 with standard chemotherapeutic drugs was conducted. […]

In data set [9] the test system is human THP-1 tumor xenografts. Put plainly: Subcutaneous THP-1 tumor xenograft model in mice. The class given is in vivo. The note with it: data not shown.
Data set [10] has as its system Namalwa cells. Put plainly: In vitro clonogenic cytotoxicity assay, CD33-negative cells. The class given is cell-based. Here is the method: (§2) The cytotoxicity of My9-6-DM1 was measured using the CD33-expressing THP-1 cell and the CD33-negative cell line Namalwa. Cells were plated in 96-well plates in media containing the conjugate and incubated at 37° C. until colonies had formed (2-3 weeks). Colonies were then scored, and the surviving fractions determined using Poisson distribution in the calculations.
(§3) The cytotoxicity of My9-6-DM1 toward CD33 expressing cells (THP-1) compared to a CD33-negative cell line (Namalwa) was tested using a clonogenic assay, where cell killing activity is determined by quantifying the number of colonies that can grow following treatment.

The test system of data set [11] is THP-1 cells. Put plainly: In vitro clonogenic cytotoxicity assay, CD33-expressing cells. It counts as cell-based, human. To be noted: THP-1, clonogenic assay. The protocol: as §2, §3
The target of data set [12] is T2, CD33 on HL-60 cells (Homo sapiens, UniProt P20138).
T2 construct: endogenous in cells; host or cells: HL-60 human leukemic cell line (whole cells; plasma membranes prepared from HL-60)
T2 sequence (P20138 18-364): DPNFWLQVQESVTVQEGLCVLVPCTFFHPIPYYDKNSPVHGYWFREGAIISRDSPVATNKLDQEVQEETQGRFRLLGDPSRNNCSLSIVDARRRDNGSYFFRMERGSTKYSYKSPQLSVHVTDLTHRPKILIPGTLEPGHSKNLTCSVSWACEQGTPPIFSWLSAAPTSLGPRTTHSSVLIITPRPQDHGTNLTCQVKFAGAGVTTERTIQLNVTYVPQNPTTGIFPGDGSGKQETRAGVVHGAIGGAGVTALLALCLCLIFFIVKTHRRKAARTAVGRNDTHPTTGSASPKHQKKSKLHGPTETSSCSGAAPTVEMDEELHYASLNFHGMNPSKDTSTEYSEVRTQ
Put plainly: Antibody and conjugate binding to HL-60 cells by flow cytometry. The protocol: HL-60 cells were incubated with various concentrations of either My9-6 antibody or My9-6-DM1. The cells were then washed and incubated with a secondary FITC-labeled anti-murine IgG antibody. Following an additional wash, cells were fixed with 2% formaldehyde and cell-associated fluorescence was quantified using a BD FACScan flow cytometer.
In general terms: In flow cytometry, cells or beads pass a laser one at a time.

For data set [13] the following is noted: in vivo; cited from earlier work. The source holds these as a separate data set.
Data set [14] addresses T3, CD33 on HL-60 membranes or whole cells (Homo sapiens, UniProt P20138).
T3 construct: endogenous in cells; host or cells: HL-60 human leukemic cell line (whole cells; plasma membranes prepared from HL-60)
Description: Direct binding assays on HL-60 membranes and HL-60 whole cells. Here is the method: HL-60 cells were harvested from T75 flasks (NUNCLON™, cat. no. 153732), and centrifuged at about 300×g for five minutes in an Omnifuge RT tabletop centrifuge (Haereus Separations, Germany), at 4° C. The cells were resuspended at a density of 3×10^6 cells per mL in FACS buffer, comprised of 2% (v/v) goat serum (Sigma Chemical Co., St Louis, Mo.) in MEM Alpha Medium, supplemented with L-glutamine (Life Technologies, Grand Island, N.Y.). Using a multichannel pipetor, 3×10^5 cells were added to wells of a Falcon 96-well round bottom plate (cat. no. 3077) and then placed on ice. Using a Falcon 96-well flexible assay plate (cat. no. 353911), eleven twofold serial dilutions of each test or control article were prepared in duplicate in FACS buffer, from a starting concentration of 2×10^−8 M. Then, 100 μl of either test or control article was mixed with the cells. Control wells only received FACS buffer. The plate was incubated on ice for one hour, and then centrifuged for five minutes at 300× g, in a refrigerated centrifuge. Reagents were removed from the plate wells by quick inversion over a waste beaker containing 10% bleach. […] The assay plate was then analyzed on a FACScan flow cytometer interfaced with an automated 96-well sampling device (Becton Dickinson, Mountain View, Calif.). […]

Where [15] appears, read: 100 μg/kg, every 4 days for 3 doses.
[16] abbreviates: tumor volume >400 mm^3 at start of treatment.
Setting [17] is: 20 mg conjugated antibody/kg/day i.v. ×5 days.
Where [18] appears, read: second treatment identical to the first.

“Also recorded” adds a separate entry of the source.

T1 sequence (P20138 18-364): as above
T3 sequence (P20138 18-364): as above

For the molecule “Gemtuzumab ozogamicin: humanized anti-CD33 antibody conjugated to calicheamicin [reference compound]”, the response rate in data set [1] is given as 30%. Moreover, in data set [2], the “killing of leukemia cells” value is given as “specific killing of leukemia cells”. In data set [3] (setting [15]), the tumor growth delay entry is recorded as “about 25 days” and the tumor response entry was “modest tumor regression”. For the same molecule, the “toxicity in SCID mice” value in data set [3] (0.3 mg/kg, preliminary experiment, data not shown) is listed as “too toxic”. Also, the toxicity result in data set [3] (100 and 200 μg/kg, every 4 days for 3 doses) is “Significant toxicity”. The molecule further returned a maximum tolerated dose in data set [3] (SCID mice, every 4 days for 3 doses) of 0.1 mg/kg. Also, the “toxicity in post-marketing reports” value in [4] is given as “venoocclusive disease (VOD)”. In addition, the major toxicity observed result in [5] is listed as “myelosuppression”. Moreover, the “published MTD” value in data set [6] is 0.3 mg/kg. For the same molecule, the effect on survival entry in [7] is “modest increase in survival”.
Turning to “My9-6-DM1: murine My9-6 antibody linked via SPP disulfide linker to the maytansinoid DM1”, the “response of relapsed tumors to second treatment” value in [8] (second treatment of My9-6-DM1) was “sensitive to a second treatment”. Besides, in data set [8] (setting [16]), the “mice with relapsed tumors” value is given as 2 of 6 and the tumor response result was “complete regression of large tumors”. In addition, the “outcome of mice bearing THP-1 xenografts” value in data set [9] was “long-term cures”. For the same molecule, the “toxicity toward CD33-negative cells” value in data set [10] is given as “No significant toxicity”. The “mice showing complete cures” value in data set [3] (13 mg/kg i.v. once a day for 5 days) was 2 of 5. Besides, the tumor growth delay result in [3] (13 mg/kg i.v. once a day for 5 days, the other 3 mice) is “approximately 20 days”. Besides, in data set [3] (setting [17]), the toxicity result was “no toxicity” and the tumor response result is reported as “complete eradication of the tumors”. Moreover, the tumor response entry in data set [3] (23 mg antibody/kg (350 μg DM1/kg) daily for 5 days) is reported as “complete regression of the tumors”. The “mouse body weight decrease” value in [3] (23 mg antibody/kg daily for 5 days) was determined as 12%. Moreover, in data set [3] (23 mg antibody/kg daily for 5 days, starting at day 70), the “mice with regrowth of tumors” value was “two of the six”. In addition, the “maximum body weight loss” value in data set [3] (19 and 26 mg/kg i.v. once a day for 5 days) is reported as “less than 10%”. In data set [3] (19 and 26 mg/kg i.v. once a day for 5 days, tumors 100 mm^3), the tumor response result was “complete regression of the tumors”. Moreover, in [3] (i.v. once a day for 5 days), the “outcome of mice bearing HL-60 xenografts” value is on record as “long-term cures” and the “toxicity at curative doses” value is listed as “little toxicity”. Moreover, in [3] (setting [18]), the “response of relapsing tumors to second treatment” value is listed as “complete regression” and the “toxicity of second treatment” value was “no adverse toxicity”. In addition, in [11], the “cytotoxicity toward CD33-positive tumor cells” value is “potent antigen-specific cytotoxicity; also recorded: potent cell killing activity”. For the same molecule, in data set [12], the “CD33 binding of conjugate compared with unmodified antibody” value is “maintained the specificity and binding affinity of the unmodified antibody; also recorded: comparable to the unmodified antibody”. In addition, the effect on survival result in data set [7] is given as “dramatic increase in survival”. In data set [7] (i.v. daily ×5), the “mice alive at 70 days” value was 7 of 8.
calicheamicin: in [13], the “toxicity in pre-clinical models” value was “hepatotoxicity”.

B1: V1.0: most human resurfaced version of My9-6, all ten human surface residues (antibody, V domains shown)
VH: QVQLQQPGAEVVKPGASVKMSCKASGYTFTSYYIHWIKQTPGQGLEWVGVIYPGNDDISYNQKFQGKATLTADKSSTTAYMQLSSLTSEDSAVYYCAREVRLRYFDVWGQGTTVTVSS
VL: EIVLTQSPGSLAVSPGERVTMSCKSSQSVFFSSSQKNYLAWYQQIPGQSPRLLIYWASTRESGVPDRFTGSGSGTDFTLTISSVQPEDLAIYYCHQYLSSRTFGQGTKLEIKR
With B1, in [14] (HL-60 membranes and whole cells), the “binding affinity relative to wild type” value is reported as “near wild type binding affinities”. Moreover, the “KD value compared with murine My9-6” value in data set [14] (HL-60 membranes or whole cells, numbers only in FIG. 17) is recorded as “fall within the experimental error of the KD value of murine My9-6”.
